Twelve compounds from US10328163B2, “Compounds binding to neuropathological aggregates” (Technische Universität München, priority 2014, dated 2019) can be followed below.

Tested on in the first series: not listed separately
As to the kind of experiment: log P (octanol/PBS). The format is physicochemical. The following applies: Table 2. An excerpt: Lipophilicity of CNS tracers plays an important role on blood brain barrier (BBB) and neuronal cells uptake. Therefore a library of ^18F-bithiazoles with high binding affinity towards Aβ1-40, Aβ1-42 τ, α-Syn were synthesized and log P (octanol/PBS) of these compounds measured (Table 2). The log P values were between 1.1-3.2.
On to `CN(C)c1ccc(-c2csc(-c3nc(-c4ccc(OCF)cc4)cs3)n2)cc1` [Compound 7], for which the logP turned out to be 3.2.
On the same count and under the same terms, the value for `FCCOc1ccc(-c2csc(-c3nc(-c4ccc5c(c4)OCO5)cs3)n2)cc1` [Compound 10] was 2.6; that for `Oc1ccc(-c2csc(-c3nc(-c4ccc(OCCOCCF)c(O)c4)cs3)n2)cc1O` [Compound 16] was 1.1.
For the compound `Oc1cc(-c2csc(-c3nc(-c4ccc5c(c4)OCO5)cs3)n2)ccc1OCCOCCF` [Compound 9], the logP was determined as 1.9.
Same read-out and setting: the value for `Oc1ccc(-c2csc(-c3nc(-c4ccc(OCCOCCF)cc4)cs3)n2)cc1` [Compound 14] was 1.9; that for `CN(C)c1ccc(-c2csc(-c3nc(-c4ccc(NCCOCCOCCF)cc4)cs3)n2)cc1` [Compound 19] was 2.4; that for `FCCOCCOCCOc1ccc(-c2csc(-c3nc(-c4ccc5c(c4)OCO5)cs3)n2)cc1` [Compound 18] was 2.3.
Turning to `FCOc1ccc(-c2csc(-c3nc(-c4ccc5c(c4)OCO5)cs3)n2)cc1` [Compound 15], the logP is 2.6.
The compound `FCCOCCOc1ccc(-c2csc(-c3nc(-c4ccc5c(c4)OCO5)cs3)n2)cc1` [Compound 11] displayed a logP of 2.5.
Same read-out and setting: in the case of `CN(C)c1ccc(-c2csc(-c3nc(-c4ccc(OCCOCCF)cc4)cs3)n2)cc1` [Compound 13] it was 2.6.
On to `Nc1ccc(-c2csc(-c3nc(-c4ccc(NCCOCCOCCF)cc4)cs3)n2)cc1` [Compound 12], for which the lipophilicity (logP) amounted to 2.
Regarding `Oc1cc(-c2csc(-c3nc(-c4ccc5c(c4)OCO5)cs3)n2)ccc1OCCF` [Compound 8], the logP is 2.1.

The test system of a further series is Aβ1-40, Aβ1-42, τ, α-Syn aggregates. Put plainly: In vitro selectivity / binding profile across aggregates (potential use: targeting of). The following applies: Table 2. How it is done:
Saturation and competition binding assays of compounds in this invention towards synthetic amyloid peptides, human tau-441 recombinant and human α-synuclein recombinant aggregate (fibrils) were performed similar to previously reported assays (Manook et al. 2012 and Yousefi et al. 2011) and adapted to the change of peptides and label. Aggregates sample was deployed on 96-well cell culture plates (Greiner Bio-One, Germany) to a final reaction volume of […] per well using 8-channel electronic pipettes (Mettler Toledo, Germany) giving 12-24 octuples of data points per sample. Bound and free fractions were separated by vacuum filtration through polyethyleneimine-pretreated GF/B glass filtermats using a semi-automated Harvester 96 Mach II M (Tomtec, USA). Filters were cut and retained radioactivity determined using an automatic NaI(TI) well-type γ-detector (Wallac 1480-011 Automatic Gamma Counter, PerkinElmer, USA). Data were processed and analyzed using GraphPad Prism 6.0 (GraphPad Software, USA).
Turning to `CN(C)c1ccc(-c2csc(-c3nc(-c4ccc(OCF)cc4)cs3)n2)cc1` [Compound 7], the “Potential Use: Targeting of (in vitro selectivity)” value is on record as “Aβ”.
Consider `FCCOc1ccc(-c2csc(-c3nc(-c4ccc5c(c4)OCO5)cs3)n2)cc1` [Compound 10], for which the “Potential Use: Targeting of (in vitro selectivity)” value is listed as “α-syn”.
On the same count and under the same terms, the value for `Oc1ccc(-c2csc(-c3nc(-c4ccc(OCCOCCF)c(O)c4)cs3)n2)cc1O` [Compound 16] was “PAN”; that for `Oc1cc(-c2csc(-c3nc(-c4ccc5c(c4)OCO5)cs3)n2)ccc1OCCOCCF` [Compound 9] was “PAN”; that for `Oc1ccc(-c2csc(-c3nc(-c4ccc(OCCOCCF)cc4)cs3)n2)cc1` [Compound 14] was “The low binding site of Aβ”.
Still for that read-out and setting: the value for `CN(C)c1ccc(-c2csc(-c3nc(-c4ccc(NCCOCCOCCF)cc4)cs3)n2)cc1` [Compound 19] was “Aβ”; that for `FCCOCCOCCOc1ccc(-c2csc(-c3nc(-c4ccc5c(c4)OCO5)cs3)n2)cc1` [Compound 18] was “α-syn”; that for `FCOc1ccc(-c2csc(-c3nc(-c4ccc5c(c4)OCO5)cs3)n2)cc1` [Compound 15] was “α-syn”.
On to `FCCOCCOc1ccc(-c2csc(-c3nc(-c4ccc5c(c4)OCO5)cs3)n2)cc1` [Compound 11], for which the “Potential Use: Targeting of (in vitro selectivity)” value was “α-syn”.
For the compound `CN(C)c1ccc(-c2csc(-c3nc(-c4ccc(OCCOCCF)cc4)cs3)n2)cc1` [Compound 13], the “Potential Use: Targeting of (in vitro selectivity)” value is reported as “Aβ”.
Same read-out and setting: in the case of `Nc1ccc(-c2csc(-c3nc(-c4ccc(NCCOCCOCCF)cc4)cs3)n2)cc1` [Compound 12] it was “Aβ”; in that of `Oc1cc(-c2csc(-c3nc(-c4ccc5c(c4)OCO5)cs3)n2)ccc1OCCF` [Compound 8], “PAN”.

As a reminder, the logP is the decadic logarithm of the partition coefficient of the neutral form, usually between octanol and water. Read a high logP as a more lipophilic compound.
